Holding throughout (format): cell-based
One assay concerns Moraxella M6. In words: MIC, agar incorporation method.
For the next assay, the system named is S. warnerii ST360. In words: MIC, agar incorporation method.
The next assay relates to H. influenzae 474. In words: MIC against Haemophilus strains.
The next assay has as its system H. influenzae R. Kind of assay: MIC against Haemophilus strains.
A further assay deals with E. faecalis 5B (VRE). In words: MIC, agar incorporation method.
A further assay has as its system H. influenzae 23. In words: MIC against Haemophilus strains.
Setting [1] is: S. No. 19, E. faecalis 5B (VRE).
The mark [2] stands for this setting: Haemophilus influenzae, s. No. 11, H. influenzae 474, read-out: MIC.
Setting [3] is: Haemophilus influenzae, s. No. 4, H. influenzae R, read-out: MIC.
The mark [4] stands for this setting: Haemophilus influenzae, s. No. 5, H. influenzae 23, read-out: MIC.

≈ marks a conversion by molar mass, not a printed value. Where two headings read alike, the source gives them in different places.

As for `O=C(NC[C@H]1CN(c2ccc(N3CCN(c4ccc([N+](=O)[O-])s4)CC3)c(F)c2)C(=O)O1)C(Cl)Cl` [compound 9, (S)—N-[[3-[-3-Fluoro-4-[N-1-(5-nitro-2-thienyl)-piperazinyl]phenyl] -2-oxo-5-oxazolidinyl]methyl]dichloroacetamide], the MIC against Moraxella M6 (S. No. 60, Moraxella M6) was 1 µg/mL (≈ 1.88 µM); against S. warnerii ST360 (S. No. 16, S. warnerii ST360) it was 0.5 µg/mL (≈ 0.939 µM); with H. influenzae 474 (s. No. 11, H. influenzae 474), above 16 µg/mL; in the assay with H. influenzae R (s. No. 4, H. influenzae R) it was above 16 µg/mL; with E. faecalis 5B (VRE) (setting [1]), 0.5 µg/mL (≈ 0.939 µM); with H. influenzae 23 (s. No. 5, H. influenzae 23) it was above 16 µg/mL.

For `CC(=O)NC[C@H]1CN(c2ccc(N3CCN(c4ccc([N+](=O)[O-])o4)CC3)c(F)c2)C(=O)O1` [Compound No. 4, (S)—N-[[3-[3-Fluoro-4-[4-(5-nitro-2-furyl)-1-piperazinyl]phenyl]-2-oxo-5-oxazolidinyl]methyl]acetamide], in the assay with S. warnerii ST360, the MIC was found to be 8 µg/mL (≈ 17.9 µM).

With `CC(=O)NC[C@H]1CN(c2ccc(N3CCN(c4ccc(C=O)o4)CC3)c(F)c2)C(=O)O1` [Compound No. 3, (S)—N-[[3-[3-Fluoro-4-[4-(5-formyl-2-furyl)-1-piperazinyl]phenyl]-2-oxo-5-oxazolidinyl]methyl]acetamide], the MIC in the assay with H. influenzae 474 (setting [2]) is 4 µg/mL (≈ 9.29 µM); in the assay with H. influenzae R (setting [3]), 8 µg/mL (≈ 18.6 µM); in the assay with H. influenzae 23 (setting [4]) it was 8 µg/mL (≈ 18.6 µM).

In the case of `O=C(NC[C@H]1CN(c2ccc(N3CCN(c4ccc([N+](=O)[O-])s4)CC3)c(F)c2)C(=O)O1)C(F)F` [Compound No. 8, (S)—N-[[3-[3-Fluoro-4-[4-(5-nitro-2-thienyl)-1-piperazinyl]phenyl]-2-oxo-5-oxazolidinyl]methyl]difluoroacetamide], the MIC is 1 µg/mL (≈ 2 µM) against Moraxella M6 (Moraxella, M6); 0.25 µg/mL (≈ 0.501 µM) against S. warnerii ST360; above 16 µg/mL in the assay on H. influenzae 474 (Haemophilus influenzae, 474); above 16 µg/mL in the assay on H. influenzae R (Haemophilus influenzae); 2 µg/mL (≈ 4 µM) in the assay with E. faecalis 5B (VRE) (Enterococcus faecalis, VRE); above 16 µg/mL against H. influenzae 23 (Haemophilus influenzae, 23).

On to `CC(=O)NC[C@H]1CN(c2ccc(N3CCN(c4cc(C(OC(C)=O)OC(C)=O)sc4[N+](=O)[O-])CC3)c(F)c2)C(=O)O1` [Compound No. 5, (S)—N-[[3-[3-Fluoro-4-[4-{3-thienyl(2-nitro)-5-acetyloxy}methylacetate]-1-piperazinyl]phenyl]-2-oxo-5-oxazolidinyl]acetamide], for which the MIC with Moraxella M6 (S. No. 60, Moraxella M6) is 2 µg/mL (≈ 3.37 µM); against S. warnerii ST360 (S. No. 16, S. warnerii ST360) it was 0.25 µg/mL (≈ 0.421 µM); in the assay on H. influenzae 474 (s. No. 11, H. influenzae 474), above 16 µg/mL; against H. influenzae R (s. No. 4, H. influenzae R), 16 µg/mL (≈ 27 µM); against E. faecalis 5B (VRE) (setting [1]) it was 1 µg/mL (≈ 1.68 µM); against H. influenzae 23 (s. No. 5, H. influenzae 23) it was above 16 µg/mL.

For the compound `CN[C@H](CC(C)C)C(=O)N[C@H]1C(=O)N[C@@H](CC(N)=O)C(=O)N[C@H]2C(=O)N[C@H]3C(=O)N[C@H](C(=O)N[C@H](C(=O)O)c4cc(O)cc(O)c4-c4cc3ccc4O)[C@H](O)c3ccc(c(Cl)c3)Oc3cc2cc(c3O[C@@H]2O[C@H](CO)[C@@H](O)[C@H](O)[C@H]2O[C@H]2C[C@](C)(N)[C@H](O)[C@H](C)O2)Oc2ccc(cc2Cl)[C@H]1O` [Vancomycin, reference compound], the MIC in the assay with Moraxella M6 (Moraxella, M6) was above 8 µg/mL; in the assay on S. warnerii ST360, 0.5 µg/mL (≈ 0.345 µM); against E. faecalis 5B (VRE) (Enterococcus faecalis, VRE) it was above 16 µg/mL.

Regarding `CC(=O)NC[C@H]1CN(c2ccc(N3CCN(c4ccc([N+](=O)[O-])s4)CC3)cc2)C(=O)O1` [Compound No. 6, (S)—N-[[3-[4-[N-1-(5-nitro-2-thienyl)piperazinyl]-phenyl]-2-oxo-5-oxazolidinyl]-methyl]-acetamide], the MIC against S. warnerii ST360 (S. No. 16, S. warnerii ST360) turned out to be 1 µg/mL (≈ 2.24 µM); with H. influenzae 474 (s. No. 11, H. influenzae 474) it was 16 µg/mL (≈ 35.9 µM); with H. influenzae R (s. No. 4, H. influenzae R), 16 µg/mL (≈ 35.9 µM); against H. influenzae 23 (s. No. 5, H. influenzae 23), 16 µg/mL (≈ 35.9 µM).

Regarding `C[C@H](Cl)C(=O)NCC1CN(c2ccc(N3CCN(c4ccc([N+](=O)[O-])s4)CC3)c(F)c2)C(=O)O1` (stereo partly drawn) [Compound No. 7, (S)—N-[[3-[3-Fluoro-4-[N-1-{4-(5-nitro-2-thienyl)piperazinyl}]-phenyl]-2-oxo-5-oxazolidinyl]-methyl]-2-chloro-propionamide], the MIC with Moraxella M6 (S. No. 60, Moraxella M6) is above 8 µg/mL; in the assay with S. warnerii ST360 (S. No. 16, S. warnerii ST360) it was 4 µg/mL (≈ 7.81 µM); against H. influenzae 474 (s. No. 11, H. influenzae 474), above 16 µg/mL; against H. influenzae R (s. No. 4, H. influenzae R), above 16 µg/mL; against E. faecalis 5B (VRE) (setting [1]), above 8 µg/mL; against H. influenzae 23 (s. No. 5, H. influenzae 23), above 16 µg/mL.

On to “(S)—N-[[3-[-3-Fluoro-4-[(5-nitro-2-thienyl)-3-methyl-1-piperazinyl]phenyl]-2-oxo-5-oxazolidinyl]methyl]acetamide [Compound No. 10]”, for which the MIC was 2 µg/mL with Moraxella M6 (S. No. 60, Moraxella M6); 0.5 µg/mL against S. warnerii ST360 (S. No. 16, S. warnerii ST360); above 16 µg/mL in the assay with H. influenzae 474 (s. No. 11, H. influenzae 474); above 16 µg/mL with H. influenzae R (s. No. 4, H. influenzae R); 1 µg/mL in the assay with E. faecalis 5B (VRE) (setting [1]); above 16 µg/mL with H. influenzae 23 (s. No. 5, H. influenzae 23).

Consider `CC(=O)NC[C@H]1CN(c2ccc(N3CCN(c4ccc(C=O)s4)CC3)c(F)c2)C(=O)O1` [Compound No. 2, (S)—N-[[3-[3-Fluoro-4-[4-(5-formyl-2-thienyl)-1-piperazinyl]phenyl]-2-oxo-5-oxazolidinyl]methyl]acetamide], for which the MIC is 0.5 µg/mL (≈ 1.12 µM) in the assay on Moraxella M6 (S. No. 60, Moraxella M6, read-out: MIC); below 0.25 µg/mL in the assay with S. warnerii ST360; 16 µg/mL (≈ 35.8 µM) with H. influenzae 474 (setting [2]); above 16 µg/mL with H. influenzae R (setting [3]); 0.5 µg/mL (≈ 1.12 µM) in the assay with E. faecalis 5B (VRE) (Enterococcus faecalis, S. No. 19, E. faecalis 5B (VRE), read-out: MIC); above 16 µg/mL in the assay on H. influenzae 23 (setting [4]).
